# Test results from patent US20240287070A1, “FUSED HETEROCYCLIC DERIVATIVES” (Janssen Sciences Ireland Unlimited Company, priority 2021, published 2024).
# Columns and labels:
# HepG2 or HepG2.117 cells = experiment: Cytotoxicity, ATPlite Luminescence Assay; format: cell-based, human; details: 3-days incubation unless marked with *
# Procedure, shortened: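 Cells were exposed to compounds for 3 or 4 days, after which viability was determined by ATP-based luminescence (ATPlite).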
# [1] = Human liver microsome stability; format: in vitro ADME; details: pooled human liver microsomes 0.5 mg/mL, 1 μM compound, NADPH 1 mM, 37° C., 0-60 min
# Procedure, shortened: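 Single incubations with human liver microsomes started with 1 mM NADPH; samples taken at 0, 5, 10, 20, 40 and 60 min, quenched in acetonitrile (1:3). Cassette LC-MS analysis with internal standard; t½ derived from slope of ln peak-area ratio versus time (k = −gradient).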
# [2] = system: HBV (HepG2.117 cell line, inducibly HBV producing); experiment: Anti-HBV activity, intracellular HBV DNA by real-time PCR in HepG2.117 cell line; format: cell-based, hepatitis B virus; details: HepG2.117 cells, 3 days of treatment
# Procedure, shortened: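 HepG2.117 cells (Tet-off, inducible HBV production) were induced to replicate HBV by doxycycline absence, then treated with serially diluted compound for 3 days. Activity was quantified as intracellular HBV DNA by real-time PCR using an HBV-specific primer set and probe.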
compound,measurement,setting,value
"CC(c1ccc(C(C)(C)O)nc1)N1C[C@@H](C)n2nc3c(c2C1=O)CN(C(=O)c1cc(F)c(Cl)c(F)c1)[C@H](C)C3 (single isomer, unassigned) [Compound 60B, (3R,7R)-2-(4-chloro-3,5-difluorobenzoyl)-9-((S*)-1-(6-(2-hydroxypropan-2-yl)pyridin-3-yl)ethyl)-3,7-dimethyl-1,2,3,4,8,9-hexahydropyrido[4′,3′:3,4]pyrazolo[1,5-a]pyrazin-10(7H)-one]",CC50,HepG2 or HepG2.117 cells,> 50 µM
same,HLM Metabolism t1/2,[1],>3 h
same,EC50,[2],0.052 µM
"CNS(=O)(=O)c1ccc(C(C)N2C[C@@H](C)n3nc4c(c3C2=O)CN(C(=O)c2ccc(Cl)c(Cl)c2)[C@H](C)C4)cc1 (single isomer, unassigned) [Compound 17B, 4-((S*)-1-((3R,7R)-2-(3,4-dichlorobenzoyl)-3,7-dimethyl-10-oxo-1,3,4,7,8,10-hexahydropyrido[4′,3′:3,4]pyrazolo[1,5-a]pyrazin-9(2H)-yl)ethyl)-N-methylbenzenesulfonamide]",CC50,HepG2 or HepG2.117 cells,> 50 µM
same,HLM Metabolism t1/2,[1],1.6 h
same,EC50,[2],0.026 µM
"CC(c1ccc(C(C)(C)O)nc1)N1C[C@@H](C)n2nc3c(c2C1=O)CN(C(=O)c1ccc(Cl)c(F)c1F)[C@H](C)C3 (single isomer, unassigned) [Compound 61B, (3R,7R)-2-(4-chloro-2,3-difluorobenzoyl)-9-((S*)-1-(6-(2-hydroxypropan-2-yl)pyridin-3-yl)ethyl)-3,7-dimethyl-1,2,3,4,8,9-hexahydropyrido[4′,3′:3,4]pyrazolo[1,5-a]pyrazin-10(7H)-one]",CC50,HepG2 or HepG2.117 cells,> 50 µM
same,HLM Metabolism t1/2,[1],2.25 h
same,EC50,[2],0.3 µM
"CC(c1ccc(C#N)cc1)N1C[C@@H](C)n2nc3c(c2C1=O)CN(C(=O)c1ccc(Cl)c(Cl)c1)[C@H](C)C3 (single isomer, unassigned) [Compound 66B, 4-((S*)-1-((3R,7R)-2-(3,4-dichlorobenzoyl)-3,7-dimethyl-10-oxo-1,3,4,7,8,10-hexahydropyrido[4′,3′:3,4]pyrazolo[1,5-a]pyrazin-9(2H)-yl)ethyl)benzonitrile]",CC50,HepG2 or HepG2.117 cells,19.1 µM
same,HLM Metabolism t1/2,[1],>3 h
same,EC50,[2],0.017 µM
"CC(c1cnc(N2CCOC[C@@H]2C)nc1)N1C[C@@H](C)n2nc3c(c2C1=O)CN(C(=O)c1ccc(Cl)c(C(F)(F)F)c1)[C@H](C)C3 (single isomer, unassigned) [Compound 38B, (3R,7R)-2-(4-chloro-3-(trifluoromethyl)benzoyl)-3,7-dimethyl-9-((S*)-1-(2-((S)-3-methylmorpholino)pyrimidin-5-yl)ethyl)-1,2,3,4,8,9-hexahydropyrido[4′,3′:3,4]pyrazolo[1,5-a]pyrazin-10(7H)-one]",CC50,HepG2 or HepG2.117 cells,28.4 µM
same,HLM Metabolism t1/2,[1],0.642 h
same,EC50,[2],0.012 µM
"Cc1ncc(C(C)N2C[C@@H](C)n3nc4c(c3C2=O)CN(C(=O)c2ccc(Cl)c(Cl)c2)[C@H](C)C4)cn1 (single isomer, unassigned) [Compound 4B, (3R,7R)-2-(3,4-dichlorobenzoyl)-3,7-dimethyl-9-((S*)-1-(2-methylpyrimidin-5-yl)ethyl)-1,2,3,4,8,9-hexahydropyrido[4′,3′:3,4]pyrazolo[1,5-a]pyrazin-10(7H)-one]",CC50,HepG2 or HepG2.117 cells,> 50 µM
same,HLM Metabolism t1/2,[1],>3 h
same,EC50,[2],0.057 µM
"C[C@@H]1Cc2nn3c(c2CN1C(=O)c1ccc(Cl)c(C(F)(F)F)c1)C(=O)N([C@@H](C)c1ccc([S@]2(=O)=NCCC2)nc1)C[C@H]3C (relative stereo) [Compound 30D, (3R,7R)-2-(4-chloro-3-(trifluoromethyl)benzoyl)-3,7-dimethyl-9-((S*)-1-(6-((S*)-1-oxido-4,5-dihydro-3H-116-isothiazol-1-yl)pyridin-3-yl)ethyl)-1,2,3,4,8,9-hexahydropyrido[4′,3′:3,4]pyrazolo[1,5-a]pyrazin-10(7H)-one]",CC50,HepG2 or HepG2.117 cells,> 50 µM
same,HLM Metabolism t1/2,[1],0.255 h
same,EC50,[2],0.047 µM
